Laboratory results taken from patent US20230063321A1, “Methods for Treating Inflammatory Bowel Diseases with alpha4beta7 Integrin Antagonists” (Protagonist Therapeutics, Inc., priority 2020, published 2023).
Where “and” joins values, the source holds several entries; their conditions need not be identical. Equal values may be shown once. Numbered stars: 1 amine (or outer) side, 2 acyl side, 3 side chain; on linkers, the order of the positions; unused ones are H or OH. Bridge positions count the residues as written; N and C are the ends. Square brackets hold non-standard residues; d marks the D form. Peptide text beside a SMILES is read from it. I, II: the chains in the order shown. ξ: configuration not given here. Phe(4-tBu) = CC(C)(C)c1ccc(C[C@H](N)C(=O)O)cc1; Diglycolyl = O=C(COCC(=O)[*:2])[*:1]; NMeR = CN[C@@H](CCCNC(=N)N)C(=O)O; β3hE = N[C@@H](CCC(=O)O)CC(=O)O; Thr(3ξ) = CC(O)[C@H](N)C(=O)O; X1 = O=C(c1ccccc1C[*:2])[*:1]; Pen = CC(C)(S)[C@H](N)C(=O)O

What was measured:
[1] = target: T1, memory CD4+ T cells expressing α4β7 / recombinant MAdCAM1 (Homo sapiens, UniProt P13612+P26010); experiment: Potency against memory CD4+ T cells expressing α4β7 to recombinant MAdCAM1; assay type: cell-based; conditions: cells isolated from human PBMCs
T1 construct: endogenous in cells

[2] = Oral bioavailability in mice; conditions: mouse, in vivo
[3] = clinical; conditions: male, human, in vivo; for AUC(0-inf): AUCinf (ng · h/mL); for AUC(0-t): AUCt (ng · h/mL); for AUC: AUCtau (ng · h/mL); for Cmax: Cmax (ng/mL)
Protocol: (§1) Dose escalation proceeded from 100 mg, 300 mg, 1000 mg, 1400 mg. Subjects in the 300 mg dose cohort received treatment in the fasted state on one occasion and following a high fat meal on a second occasion in a crossover fashion. The high fat meal consisted of two eggs fried in butter, two strips of bacon, two slices of toast with butter, four ounces of hash brown potatoes and 240 ml of whole milk. During Part 1, subjects refrained from food and drink except water for 10 hours before and for four hours after dosing with the exception of subjects in the 300 mg dose cohort during the fed treatment.
(§2) Part 2 was a randomized, placebo-controlled, double-blind multiple ascending dose study in 50 male subjects divided equally into 5 cohorts. […] Doses evaluated in Part 2 included 100 mg, 300 mg and 1000 mg. During Part 2, two cohorts of subjects (100 mg and 300 mg) received food approximately 30 minutes prior to each dose and another two cohorts of subjects (300 mg and 100 mg) refrained from food for 10 hours before and for 1 hour after dosing.
(§3) Study 1: The single and multiple ascending dose phase of the study consisted of sequential dose escalations in 10 subject per dose cohort. […] Dose solutions were formulated in 50 mM phosphate buffer pH 7.4 and were prepared weekly by a qualified pharmacist.
(§4) Blood samples for pharmacokinetics were collected predose and for 48 hours postdose following single doses. In the multiple ascending dose phase, blood samples were obtained on Days 1-3 and 14-16; on Days 8 samples were obtained predose, 4, and 12 hours. On Day 10 of the MAD, subjects were required to collect all urine for the 0-6, 6-12, 12-18, and 18-24 hour intervals postdose and on Day 11 subjects were required to collect fecal samples.
(§5) The drug and internal standard were extracted from the matrix by a protein precipitation procedure. The limit of quantitation was 0.2 ng/mL, 20 ng/mL, and 100 ng/mL in plasma, urine, and feces, respectively. […] Coefficient of determinations for the calibration curves were at least 0.99 for all matrices. The interassay accuracy (% bias) ranged from −2.2% to 1.0% for plasma, −3.8% to 9.0% for urine and −5.0 to 5.2% for feces. Interassay precision (% CV) ranged from 3.7% to 7.7% for plasma, 2.8% to 7.0% for urine, and 1.2% to 5.2% for feces.
(§6) Pharmacokinetic parameters were estimated by noncompartmental methods using Phoenix WinNonlin (Certara, Princeton N.J.). Peak plasma concentration (Cmax) and time to peak plasma concentration (Tmax) were observed values. The elimination rate was estimated from the slope of the least-squares regression on the terminal log-linear phase. Area under the plasma concentration-time curve from time zero to the last quantifiable concentration (AUCt) was estimated by a linear trapezoidal method and was extrapolated to infinity (AUC∞) by dividing the last quantifiable concentration b the elimination rate.

[4] = Study 1 pharmacokinetics in healthy male volunteers (liquid solution); conditions: for dose excreted at 24 h: 24-hour fecal recovery, intact
Protocol: as §1, §2, §3, §4, §5, §6

T1 sequence (P13612 34-1032): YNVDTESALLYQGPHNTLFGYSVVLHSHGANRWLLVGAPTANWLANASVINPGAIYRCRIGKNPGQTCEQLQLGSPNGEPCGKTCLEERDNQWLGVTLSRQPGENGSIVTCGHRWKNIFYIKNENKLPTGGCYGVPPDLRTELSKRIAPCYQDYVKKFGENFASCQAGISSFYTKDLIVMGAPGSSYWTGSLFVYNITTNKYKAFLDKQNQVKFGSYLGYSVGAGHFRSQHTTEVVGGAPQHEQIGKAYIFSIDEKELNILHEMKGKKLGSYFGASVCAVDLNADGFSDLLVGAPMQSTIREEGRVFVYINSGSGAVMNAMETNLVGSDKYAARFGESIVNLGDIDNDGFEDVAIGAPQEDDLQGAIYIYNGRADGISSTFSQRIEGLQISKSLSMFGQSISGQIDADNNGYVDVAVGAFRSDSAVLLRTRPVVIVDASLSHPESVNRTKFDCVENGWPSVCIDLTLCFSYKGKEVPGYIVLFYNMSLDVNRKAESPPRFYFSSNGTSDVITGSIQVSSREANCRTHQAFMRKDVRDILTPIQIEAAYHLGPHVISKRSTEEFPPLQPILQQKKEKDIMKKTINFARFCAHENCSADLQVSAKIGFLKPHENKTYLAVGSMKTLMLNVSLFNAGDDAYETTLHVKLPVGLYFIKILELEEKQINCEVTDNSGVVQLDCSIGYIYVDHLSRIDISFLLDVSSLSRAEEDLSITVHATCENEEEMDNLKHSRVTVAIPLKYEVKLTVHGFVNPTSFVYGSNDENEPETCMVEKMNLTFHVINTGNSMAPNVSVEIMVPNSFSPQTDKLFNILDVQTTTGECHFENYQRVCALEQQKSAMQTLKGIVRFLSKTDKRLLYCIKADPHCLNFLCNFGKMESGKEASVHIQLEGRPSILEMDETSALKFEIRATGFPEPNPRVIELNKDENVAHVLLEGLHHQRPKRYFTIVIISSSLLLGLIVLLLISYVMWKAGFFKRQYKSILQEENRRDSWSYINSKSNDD
T1 sequence (P26010 20-798): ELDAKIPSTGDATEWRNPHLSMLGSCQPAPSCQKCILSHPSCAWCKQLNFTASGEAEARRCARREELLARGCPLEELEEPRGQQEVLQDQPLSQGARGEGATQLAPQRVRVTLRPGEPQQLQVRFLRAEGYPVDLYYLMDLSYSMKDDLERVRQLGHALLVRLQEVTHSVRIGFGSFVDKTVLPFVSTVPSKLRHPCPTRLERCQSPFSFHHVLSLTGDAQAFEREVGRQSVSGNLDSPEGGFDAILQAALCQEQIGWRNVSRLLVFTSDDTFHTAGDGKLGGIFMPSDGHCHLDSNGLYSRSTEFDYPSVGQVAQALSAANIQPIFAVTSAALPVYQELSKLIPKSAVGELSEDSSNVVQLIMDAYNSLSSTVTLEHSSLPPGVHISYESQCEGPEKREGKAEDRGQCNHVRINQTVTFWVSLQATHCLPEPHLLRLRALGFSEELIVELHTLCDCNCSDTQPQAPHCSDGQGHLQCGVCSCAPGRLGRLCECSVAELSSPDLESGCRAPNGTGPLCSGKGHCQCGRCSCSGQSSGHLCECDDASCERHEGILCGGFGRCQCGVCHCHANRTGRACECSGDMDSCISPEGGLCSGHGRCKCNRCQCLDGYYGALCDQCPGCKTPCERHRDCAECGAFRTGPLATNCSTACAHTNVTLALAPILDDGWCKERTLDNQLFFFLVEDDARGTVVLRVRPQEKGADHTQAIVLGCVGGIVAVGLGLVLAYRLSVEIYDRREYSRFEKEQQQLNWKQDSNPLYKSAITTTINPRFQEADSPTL

SMILES: CC(C)C[C@@H]1NC(=O)[C@H](C(C)O)NC(=O)[C@H](CC(=O)O)NC(=O)[C@H](CO)NC(=O)[C@H](CCCNC(=N)N)N(C)C(=O)c2ccccc2CSC(C)(C)[C@@H](C(=O)N[C@@H](Cc2ccc(C(C)(C)C)cc2)C(=O)N[C@@H](CCC(=O)O)CC(=O)N[C@H](CCCCNC(=O)COCC(=O)NCCCC[C@@H](NC(=O)C[C@H](CCC(=O)O)NC(=O)[C@H](Cc2ccc(C(C)(C)C)cc2)NC(=O)[C@H]2NC(=O)[C@H](CC(C)C)NC(=O)[C@H](C(C)O)NC(=O)[C@H](CC(=O)O)NC(=O)[C@H](CO)NC(=O)[C@H](CCCNC(=N)N)N(C)C(=O)c3ccccc3CSC2(C)C)C(=O)O)C(=O)O)NC1=O (stereo partly drawn) [Compound A, ((2-Benzyl)-(N-Me-R)-Ser-Asp-Thr-Leu-Pen-(Phe(4-tBlu))-(β-homo-Glu)-(D-Lys)-OH)2 (SEQ ID NO: 5) and linker-DIG diglycolic acid] (I: [NMeR]SD[Thr(3ξ)]L[Pen][Phe(4-tBu)][β3hE][dK]-OH / II: [NMeR]SD[Thr(3ξ)]L[Pen][Phe(4-tBu)][β3hE][dK]-OH; linker I:9-II:9 via Diglycolyl; linker I:N-I:6, II:N-II:6 via X1)
- IC50 [1]: 0.265 nM
- bioavailability [2]: < 1%
- AUC(0-inf) ([3]; 100 mg): 16.5 ng·h/mL
- AUC(0-inf) ([3]; 300 mg): 57.6 ± 23.6 ng·h/mL
- AUC(0-t) ([3]; 450 mg): 77.6 ± 37.1 ng·h/mL
- AUC ([3]; 450 mg): 41.5 ± 10.7 ng·h/mL
- Cmax ([3]; 450 mg): 9.96 ng/mL
- AUC(0-inf) ([3]; 900 mg): 176 ± 98.5 ng·h/mL
- AUC(0-t) ([3]; 900 mg): 159 ± 70.5 ng·h/mL
- AUC ([3]; 900 mg): 159 ± 70.5 ng·h/mL
- Cmax ([3]; 900 mg): 14.2 ng/mL
- AUC(0-inf) ([3]; 1000 mg): 151 ± 31.7 ng·h/mL
- AUC(0-t) ([3]; 1000 mg): 138 ± 33.7 ng·h/mL
- Cmax ([3]; 1000 mg): 15.3 ± 4.11 ng/mL
- AUC(0-inf) ([3]; 1400 mg): 260 ng·h/mL
- AUC(0-t) ([3]; 1400 mg): 257 ± 173 ng·h/mL
- Cmax ([3]; 1400 mg): 23.5 ng/mL
- accumulation with once daily dosing (Cmax and AUCt, Day 14 vs Day 1) ([4]; 300 mg and 1000 mg): ≤ 30%
- Fluctuation (%) ([4]; 450 mg Twice Daily, Day 5, Mean ± SD): 143% and 143 ± 42%
- Fluctuation (%) ([4]; 450 mg Twice Daily, Day 5, Mean ± SD, listed as COMPOUND A): 143%
- Fluctuation (%) ([4]; 900 mg Once Daily, Day 5, Mean ± SD): 245 ± 81%
- Fluctuation (%) ([4]; 900 mg Once Daily, Day 5, Mean ± SD, listed as COMPOUND A): 245%
- half-life ([4]; human, plasma, oral, 100 mg, t½ (h), 100 mg Fed once daily, Day 1, N = 1): 231 min
- half-life ([4]; human, plasma, oral, 100 mg, t½ (h), 100 mg Fed once daily, Day 14, N = 1): 444 min
- half-life ([4]; human, plasma, oral, 300 mg, t½ (h), 300 mg Fed once daily, Day 1, N = 1): 478 min
- dose excreted at 24 h ([4]; male, human, faeces, oral, 300 mg, 300 mg fasted, multiple dose): 0.73%
- dose excreted at 24 h ([4]; male, human, faeces, oral, 300 mg, 300 mg fed, multiple dose): 1.78%
- dose excreted ([4]; male, human, faeces, oral, 300 mg, fecal recovery): 1 to 2%
- dose excreted at 24 h ([4]; male, human, faeces, oral, 1000 mg, multiple dose): 16.8%
- Tmax ([4]; male, human, plasma, oral, 100 mg, Tmax (h), 100 mg Fed once daily, Day 1, Median (Min, Max)): 4 h
- Tmax ([4]; male, human, plasma, oral, 100 mg, Tmax (h), 100 mg Fed once daily, Day 14, Median (Min, Max)): 4 h
- Tmax ([4]; male, human, plasma, oral, 100 mg, Tmax (h), single dose 100 mg, Median (Min, Max)): 2 h
- Cmax ([4]; male, human, plasma, oral, 100 mg, mean peak plasma concentration (Cmax), single dose 100 mg): 2.11 ng/mL
- half-life ([4]; male, human, plasma, oral, 100 mg, t½ (h), single dose 100 mg, Mean ± SD, N = 4): 183 ± 42.6 min
- Tmax ([4]; male, human, plasma, oral, 300 mg, Tmax (h), 300 mg Fasted once daily, Day 1, Median (Min, Max)): 2 h
- Tmax ([4]; male, human, plasma, oral, 300 mg, Tmax (h), 300 mg Fasted once daily, Day 14, Median (Min, Max)): 2 h
- Tmax ([4]; male, human, plasma, oral, 300 mg, Tmax (h), 300 mg Fed once daily, Day 1, Median (Min, Max)): 4 h
- Tmax ([4]; male, human, plasma, oral, 300 mg, Tmax (h), 300 mg Fed once daily, Day 14, Median (Min, Max)): 4 h
- Tmax ([4]; male, human, plasma, oral, 300 mg, Tmax (h), single dose 300 mg Fasted, Median (Min, Max)): 3 h
- Tmax ([4]; male, human, plasma, oral, 300 mg, Tmax (h), single dose 300 mg High Fat Meal, Median (Min, Max)): 4 h
- half-life ([4]; male, human, plasma, oral, 300 mg, mean elimination half-life, single doses 100 and 300 mg): 186 to 240 min
- half-life ([4]; male, human, plasma, oral, 300 mg, t½ (h), 300 mg Fasted once daily, Day 1, Mean ± SD): 310 ± 115 min
- half-life ([4]; male, human, plasma, oral, 300 mg, t½ (h), 300 mg Fasted once daily, Day 14, Mean ± SD, N = 7): 439 ± 232 min
- half-life ([4]; male, human, plasma, oral, 300 mg, t½ (h), single dose 300 mg Fasted, Mean ± SD, N = 4): 241 ± 82.2 min
- Tmax ([4]; male, human, plasma, oral, 450 mg, Tmax (h), 450 mg Twice Daily, Day 1, Median (min, max)): 2 h
- Tmax ([4]; male, human, plasma, oral, 450 mg, Tmax (h), 450 mg Twice Daily, Day 5, Median (min, max)): 2 h
- Tmax ([4]; male, human, plasma, oral, 900 mg, Tmax (h), 900 mg Once Daily, Day 1, Median (min, max)): 2 h
- Tmax ([4]; male, human, plasma, oral, 900 mg, Tmax (h), 900 mg Once Daily, Day 5, Median (min, max)): 2 h
- half-life ([4]; male, human, plasma, oral, 900 mg, t½ (h), 900 mg Once Daily, Day 1, Mean ± SD): 316 ± 144 min
- half-life ([4]; male, human, plasma, oral, 900 mg, t½ (h), 900 mg Once Daily, Day 5, Mean ± SD): 374 ± 178 min
- Tmax ([4]; male, human, plasma, oral, 1000 mg, Tmax (h), 1000 mg Fasted once daily, Day 1, Median (Min, Max)): 2 h
- Tmax ([4]; male, human, plasma, oral, 1000 mg, Tmax (h), 1000 mg Fasted once daily, Day 14, Median (Min, Max)): 2 h
- Tmax ([4]; male, human, plasma, oral, 1000 mg, Tmax (h), single dose 1000 mg, Median (Min, Max)): 4 h
- half-life ([4]; male, human, plasma, oral, 1000 mg, t½ (h), 1000 mg Fasted once daily, Day 1, Mean ± SD): 396 ± 119 min
- half-life ([4]; male, human, plasma, oral, 1000 mg, t½ (h), 1000 mg Fasted once daily, Day 14, Mean ± SD): 462 ± 221 min
- half-life ([4]; male, human, plasma, oral, 1000 mg, t½ (h), single dose 1000 mg, Mean ± SD, N = 7): 316 ± 54.6 min
- Tmax ([4]; male, human, plasma, oral, 1400 mg, Tmax (h), single dose 1400 mg, Median (Min, Max)): 4 h
- half-life ([4]; male, human, plasma, oral, 1400 mg, mean elimination half-life, single doses 1000 and 1400 mg): 318 to 342 min
- half-life ([4]; male, human, plasma, oral, 1400 mg, t½ (h), single dose 1400 mg, Mean ± SD): 344 ± 81 min
- half-life ([4]; male, human, plasma, oral, mean elimination half-life, multiple doses): 312 to 462 min
- half-life ([4]; male, human, plasma, oral, terminal half-life, fasted state): 186 to 342 min
- half-life ([4]; male, human, plasma, oral, terminal half-life, fed state): 312 to 462 min
- Tmax ([4]; male, human, plasma, po, 300 mg, median time to peak plasma concentration, single dose 300 mg, meal 30 minutes after dosing): 1 h
- dose excreted ([4]; male, human, urine, po, 300 mg, recovered intact in urine over 24 hours, 300 mg fasted, multiple dose): 0.028%
- dose excreted ([4]; male, human, urine, po, 300 mg, recovered intact in urine over 24 hours, 300 mg fed, multiple dose): 0.056%
- dose excreted ([4]; male, human, urine, po, 1000 mg, recovered intact in urine over 24 hours, multiple dose): 0.056%
- accumulation ([4]; once daily): approximately 0.9 fold
- median time to peak plasma concentration ([4]; single dose 300 mg, meal 60 minutes after dosing): 2 h
- median time to peak plasma concentration ([4]; single dose 300 mg, meal 90 minutes after dosing): 4 h
- accumulation ([4]; twice-daily): ~1.6 fold
